The source of these data is patent US20230089867A1, “CYCLIC PENTAMER COMPOUNDS AS PROPROTEIN CONVERTASE SUBTILISIN/KEXIN TYPE 9 (PCSK9) INHIBITORS FOR THE TREATMENT OF METABOLIC DISORDER” (Novartis AG, priority 2018, published 2023).

This test addresses human PCSK9 (Homo sapiens, UniProt Q8NBP7). Description: PCSK9 ligand binding TR-FRET assay (interference with binding of human PCSK9 to human LDLR). The settings on record: for Max % inhibition: PCSK9 FRET assay, efficacy (Amax), 100% = 1 uM unlabeled human PCSK9, 0% = DMSO; for IC50: TR-FRET, human PCSK9 Alexa Fluor 647 / human LDLR extracellular domain-Europium Kryptate, read-out: PCSK9 FRET Assay IC50. The procedure:
The PCSK9 binding of the compounds of the disclosure were measured using a time resolved fluorescence resonance energy transfer (TR-FRET) assay. This time resolved fluorescence resonance energy transfer (TR-FRET) assay measures the ability of a compound of the present disclosure to interfere with the binding of human PCSK9 to human LDLR, providing measures of both potency (IC50) and efficacy (Amax).
These solutions were pipetted into columns 1 and 11 of the compound plate. Threefold serial dilutions were generated in columns 2-10 and 12-20 of the compound plate by transferring 10 uL into 20 uL of DMSO. Columns 21 and 22 of the compound plate were negative controls containing DMSO alone.
An intermediate plate was generated in a Greiner V bottom plate by transferring 8 uL from each well of the master plate into a corresponding well containing 92 uL of assay buffer and mixing thoroughly.
A Proxi plate-low volume assay plate was used for the assay. […] For the positive control wells in columns 23 and 24 of the plate, 5 uL of unlabeled human PCSK9 was added at 4 uM in assay buffer containing 8% DMSO. Following a 30 minute incubation, 5 uL of 4 nM Human LDLR extracellular domain-Europium Kryptate was added and the mixture was incubated for an additional 2 hours.
The FRET ratio (FRET/Europium) was used for calculations.
Data is expressed as percent inhibition: (value−0%)/(100%−0%).
(In TR-FRET formats the signal depends on donor and acceptor labels being close together.)

Molecules are shown by their SMILES.

human PCSK9, sequence (Q8NBP7 153-692): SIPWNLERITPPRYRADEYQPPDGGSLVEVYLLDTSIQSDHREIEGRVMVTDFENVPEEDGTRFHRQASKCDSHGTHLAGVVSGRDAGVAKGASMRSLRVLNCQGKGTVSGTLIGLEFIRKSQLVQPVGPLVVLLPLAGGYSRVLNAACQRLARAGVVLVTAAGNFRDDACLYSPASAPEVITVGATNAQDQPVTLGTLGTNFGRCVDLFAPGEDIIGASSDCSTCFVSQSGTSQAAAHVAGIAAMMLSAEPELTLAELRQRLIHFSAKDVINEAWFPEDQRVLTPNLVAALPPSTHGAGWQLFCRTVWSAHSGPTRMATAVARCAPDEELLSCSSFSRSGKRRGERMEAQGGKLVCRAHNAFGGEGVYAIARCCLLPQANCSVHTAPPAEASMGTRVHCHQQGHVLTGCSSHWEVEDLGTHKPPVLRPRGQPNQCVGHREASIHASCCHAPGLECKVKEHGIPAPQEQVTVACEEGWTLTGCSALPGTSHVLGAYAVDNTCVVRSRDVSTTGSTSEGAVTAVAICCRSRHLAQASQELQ
human PCSK9, sequence (Q8NBP7 31-152 partner limits assumed): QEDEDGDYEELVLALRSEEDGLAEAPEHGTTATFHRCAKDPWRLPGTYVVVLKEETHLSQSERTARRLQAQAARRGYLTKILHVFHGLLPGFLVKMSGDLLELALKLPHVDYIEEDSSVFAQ

For `COC[C@@H]1NC(=O)C(C)N(Cc2ccc(Cl)cc2Oc2ccc(-c3cnc(CN(C)C)n3C)cc2)C(=O)C[C@@H](C)C(=O)N(C)[C@@H](CC(C)C)CNC(=O)C[C@H](Cc2ccc(Cl)cc2)N(C)C1=O` (stereo partly drawn) [Compound 184, (5S,8S,13S,16R)-1-(4-chloro-2-(4-(2-((dimethylamino)methyl)-1-methyl-1H-imidazol-5-yl)phenoxy)benzyl)-8-(4-chlorobenzyl)-13-isobutyl-5-(methoxymethyl)-2,7,14,16-tetramethyl-1,4,7,11,14-pentaazacyclooctadecane-3,6,10,15,18-pentaone], the Max % inhibition is listed as 54.06% and the IC50 (usually the concentration that gives 50% inhibition) was found to be 9.4 nM.
The matching figures for `COC[C@@H]1NC(=O)[C@H](C)N(Cc2ccc(Cl)cc2Oc2ccc(-c3cnc(CN(C)C)n3C)cc2)C(=O)C[C@@H](Cc2ccccc2)C(=O)N(C)[C@@H](C)[C@H](C)NC(=O)C[C@H](Cc2ccc(Cl)cc2)N(C)C1=O` [Compound 186, (2S,5S,8S,12S,13S,16R)-16-benzyl-1-(4-chloro-2-(4-(2-((dimethylamino)methyl)-1-methyl-1H-imidazol-5-yl)phenoxy)benzyl)-8-(4-chlorobenzyl)-5-(methoxymethyl)-2,7,12,13,14-pentamethyl-1,4,7,11,14-pentaazacyclooctadecane-3,6,10,15,18-pentaone]: 103.39% and 0.6 nM.
The matching figures for `COC[C@@H]1NC(=O)[C@H](C)N(Cc2ccc(Cl)cc2Oc2ccc(-c3cnc(CN(C)C)n3C)cc2)C(=O)C[C@@H](Cc2ccccc2C#N)C(=O)N(C)[C@@H](C)[C@H](C)NC(=O)C[C@H](Cc2ccc(Cl)cc2)N(C)C1=O` [Compound 99, 2-(((2S,5S,8S,12S,13S,16R)-1-(4-chloro-2-(4-(2-((dimethylamino)methyl)-1-methyl-1H-imidazol-5-yl)phenoxy)benzyl)-8-(4-chlorobenzyl)-5-(methoxymethyl)-2,7,12,13,14-pentamethyl-3,6,10,15,18-pentaoxo-1,4,7,11,14-pentaazacyclooctadecan-16-yl)methyl)benzonitrile]: 104.20% and 1.6 nM.
Take `CC[C@H](c1ncc(-c2ccc(Oc3cc(Cl)ccc3CN3C(=O)C[C@@H](Cc4ccccc4)C(=O)N(C)[C@H]4CCCC[C@@H]4NC(=O)C[C@H](Cc4ccc(Cl)cc4)N(C)C(=O)[C@H](COC)NC(=O)[C@@H]3C)cc2)n1C)N(C)C` [Compound 268, (4S,7S,10S,14R,16aS,20aS)-14-benzyl-11-(4-chloro-2-(4-(2-((R)-1-(dimethylamino)propyl)-1-methyl-1H-imidazol-5-yl)phenoxy)benzyl)-4-(4-chlorobenzyl)-7-(methoxymethyl)-5,10,16-trimethylhexadecahydrobenzo[l][1,4,7,11,14]pentaazacyclooctadecine-2,6,9,12,15(3H)-pentaone]: the Max % inhibition was found to be 68.37% and the IC50 stood at 9.4 nM.
On the same counts, the results for `COC[C@@H]1NC(=O)[C@H](CCCN2CCOCC2)N(Cc2ccc(Cl)cc2Oc2ccc(-c3cnc(CN(C)C)n3C)cc2)C(=O)C[C@@H](Cc2ccccc2)C(=O)N(C)[C@@H](C)CNC(=O)C[C@H](Cc2ccc(Cl)cc2)N(C)C1=O` [Compound 158, (2S,5S,8S,13S,16R)-16-benzyl-1-(4-chloro-2-(4-(2-((dimethylamino)methyl)-1-methyl-1H-imidazol-5-yl)phenoxy)benzyl)-8-(4-chlorobenzyl)-5-(methoxymethyl)-7,13,14-trimethyl-2-(3-morpholinopropyl)-1,4,7,11,14-pentaazacyclooctadecane-3,6,10,15,18-pentaone] are 98.98% and 1.4 nM.
The matching figures for `COCC[C@H]1C(=O)N[C@@H](COC)C(=O)N(C)[C@@H](Cc2ccc(Cl)cc2)CC(=O)NC[C@H](C)N(C)C(=O)[C@H](Cc2ccccc2)CC(=O)N1Cc1ccc(Cl)cc1Oc1ccc(-c2cnc(CN(C)C)n2C)cc1` [Compound 156, (2S,5S,8S,13S,16R)-16-benzyl-1-(4-chloro-2-(4-(2-((dimethylamino)methyl)-1-methyl-1H-imidazol-5-yl)phenoxy)benzyl)-8-(4-chlorobenzyl)-2-(2-methoxyethyl)-5-(methoxymethyl)-7,13,14-trimethyl-1,4,7,11,14-pentaazacyclooctadecane-3,6,10,15,18-pentaone]: 108.38% and 3.7 nM.
The matching figures for `COC[C@@H]1NC(=O)[C@H](CC(=O)N(C)C)N(Cc2ccc(Cl)cc2Oc2ccc(-c3cnc(CN(C)C)n3C)cc2)C(=O)C[C@@H](Cc2ccccc2)C(=O)N(C)[C@H]2CCCC[C@@H]2NC(=O)C[C@H](Cc2ccc(Cl)cc2)N(C)C1=O` [Compound 269, 2-((4S,7S,10S,14R,16aS,20aS)-14-benzyl-11-(4-chloro-2-(4-(2-((dimethylamino)methyl)-1-methyl-1H-imidazol-5-yl)phenoxy)benzyl)-4-(4-chlorobenzyl)-7-(methoxymethyl)-5,16-dimethyl-2,6,9,12,15-pentaoxodocosahydrobenzo[l][1,4,7,11,14]pentaazacyclooctadecin-10-yl)-N,N-dimethylacetamide]: 97.18% and 1.3 nM.
For `COC[C@@H]1NC(=O)[C@H](C)N(Cc2ccc(Cl)cc2Oc2ccc(-c3cnc(CN(C)C)n3C)cc2)C(=O)C[C@@H](Cc2ccccc2)C(=O)N(C)[C@H]2CCOC[C@@H]2NC(=O)C[C@H](Cc2ccc(Cl)cc2)N(C)C1=O` [Compound 187, (4S,7S,10S,14R,16aS,20aR)-14-benzyl-11-(4-chloro-2-(4-(2-((dimethylamino)methyl)-1-methyl-1H-imidazol-5-yl)phenoxy)benzyl)-4-(4-chlorobenzyl)-7-(methoxymethyl)-5,10,16-trimethyltetradecahydro-1H-pyrano[3,4-l][1,4,7,11,14]pentaazacyclooctadecine-2,6,9,12,15(3H)-pentaone], the Max % inhibition amounted to 94.30% and the IC50 was determined as 1.3 nM.
On the same counts, the results for `COC[C@@H]1NC(=O)[C@H](CCC(=O)OC(C)(C)C)N(Cc2ccc(Cl)cc2Oc2ccc(-c3cnc(CN(C)C)n3C)cc2)C(=O)C[C@@H](Cc2ccccc2)C(=O)N(C)[C@@H](C)CNC(=O)C[C@H](Cc2ccc(Cl)cc2)N(C)C1=O` [Compound 10, tert-butyl 3-((2S,5S,8S,13S,16R)-16-benzyl-1-(4-chloro-2-(4-(2-((dimethylamino)methyl)-1-methyl-1H-imidazol-5-yl)phenoxy)benzyl)-8-(4-chlorobenzyl)-5-(methoxymethyl)-7,13,14-trimethyl-3,6,10,15,18-pentaoxo-1,4,7,11,14-pentaazacyclooctadecan-2-yl)propanoate] are 101.88% and 4.3 nM.
On the same counts, the results for `COC[C@@H]1NC(=O)[C@H](COC)N(Cc2ccc(Cl)cc2Oc2ccc(-c3cnc(CN(C)C)n3C)cc2)C(=O)C[C@@H](Cc2ccccc2)C(=O)N(C)[C@@H](C)CNC(=O)C[C@H](Cc2ccc(Cl)cc2)N(C)C1=O` [Compound 78, (2S,5S,8S,13S,16R)-16-benzyl-1-(4-chloro-2-(4-(2-((dimethylamino)methyl)-1-methyl-1H-imidazol-5-yl)phenoxy)benzyl)-8-(4-chlorobenzyl)-2,5-bis(methoxymethyl)-7,13,14-trimethyl-1,4,7,11,14-pentaazacyclooctadecane-3,6,10,15,18-pentaone] are 97.49% and 94.6 nM.
On the same counts, the results for `COC[C@@H]1NC(=O)[C@H](C)N(Cc2ccc(C(F)F)cc2Oc2ccc(-c3cnc(CN(C)C)n3C)cc2)C(=O)C[C@@H](Cc2ccccc2)C(=O)N(C)[C@@H](C)CNC(=O)C[C@H](Cc2ccc(Cl)cc2)N(C)C1=O` [Compound 42, (2S,5S,8S,13S,16R)-16-benzyl-8-(4-chlorobenzyl)-1-(4-(difluoromethyl)-2-(4-(2-((dimethylamino)methyl)-1-methyl-1H-imidazol-5-yl)phenoxy)benzyl)-5-(methoxymethyl)-2,7,13,14-tetramethyl-1,4,7,11,14-pentaazacyclooctadecane-3,6,10,15,18-pentaone] are 102.18% and 24.5 nM.
Regarding `C[C@H]1CNC(=O)C[C@H](Cc2ccc(Cl)cc2)N(C)C(=O)[C@H](Cc2nnn[nH]2)NC(=O)[C@H](C)N(Cc2ccc(Cl)cc2Oc2ccc(-c3cnc(CN(C)C)n3C)cc2)C(=O)C[C@@H](Cc2ccccc2)C(=O)N1C` [Compound 148, (2S,5S,8S,13S,16R)-5-((1H-tetrazol-5-yl)methyl)-16-benzyl-1-(4-chloro-2-(4-(2-((dimethylamino)methyl)-1-methyl-1H-imidazol-5-yl)phenoxy)benzyl)-8-(4-chlorobenzyl)-2,7,13,14-tetramethyl-1,4,7,11,14-pentaazacyclooctadecane-3,6,10,15,18-pentaone], the Max % inhibition came to 94.67% and the IC50 came to 29.2 nM.
